A short description of one data set: in vitro. The settings on record: human. As for the experimental part:
(§1) Anti-HIV-1 activity of synthesized compounds was evaluated in single cycle replication assay which was evaluated in our laboratory and reported previously ([32]-[35]). In this assay, the single-cycle replicable HIV NL4-3 virions (200 ng p24) were inoculated concurrently with compounds in different concentrations to the Hela cells. The inhibition rate (%) of p24 expression was measured by capture ELISA (Biomerieux, France) 72 hours after inoculation. Percentage inhibition of p24 expression in treated culture was calculated as inhibition rate of p24 (%). The XTT (sodium3-[1(phenylaminocarbonyl)-3,4-tetrazolium]-bis(4-methoxy-6-nitro)benzene sulfonic acid) proliferation assay was conducted to evaluate the cellular toxicity according to kit instructions ([36], [37]). Cytotoxicity test was performed exactly after the p24 assay.
(§2) Compounds 11a-h were assayed for anti-HIV-1 activity in single cycle replication method which reflects only one round of infection. Anti-HIV activity of compounds was measured as inhibition rate (%) of p24 expression in Hela cells cultures. Azidothymidine (AZT) was the positive control in the test. The cytotoxic properties were measured in the same cells by XTT proliferation assay and reported as percentage of cell viability.

For data set [1], the system named is HIV-1. Nature of the data set: microbe, parasite or virus in culture. It counts as cell-based. The settings on record: Human immunodeficiency virus 1, NL43, M-HeLa, 72 h, read-out: (%) Inhibition rate of p24 expression. The protocol: as §1, §2
On the set-up of data set [2]: method as in earlier work. The settings on record: read-out: CC50 (cytotoxicity); cited from earlier work.
In data set [3] the test system is HIV-1. Further details: method as in earlier work. The conditions noted are these: read-out: EC50 (anti-HIV-1 activity); cited from earlier work.

We go through 10 compounds from PMC6447871, “Design, Synthesis, Molecular Modeling, In Silico ADME Studies and Anti-HIV-1 Assay of New Diazocoumarin Derivatives” (Iranian Journal of Pharmaceutical Research : IJPR, 2018).

The viability is a read-out of living cells in per cent, often relative to untreated cells. One may read the inhibition as how much of the control response was suppressed. In general, CC50 refers to the concentration giving 50% cytotoxicity. Usually EC50 stands for the concentration that produces a half-maximal response. Usually melting point stands for the temperature, or range, at which the solid turns liquid.

Take `Cc1cn([C@H]2C[C@H](N=[N+]=[N-])[C@@H](CO)O2)c(=O)[nH]c1=O` [AZT, Azidothymidine, reference compound]: in the data set “in vitro”, the viability at 72 h, 100 µM came out at 92%. Further, the inhibition at 100 µM in the data set with HIV-1 [1] worked out at 58%.

Take `O=c1c(-c2nnc(SCc3ccccc3F)o2)c[nH]c2c(-c3ccccc3)cccc12` [Compound 3]: the CC50 in data set [2] was above 100 µM. In the data set on HIV-1 [3], the EC50 is 50 µM.

For `CSc1nnc(-c2ccc(N=Nc3c(O)c4ccccc4oc3=O)cc2)o1` [Compound 11a, 4-Hydroxy-3-((4-(5-(methylthio)-1,3,4-oxadiazol-2-yl)phenyl)diazenyl)-2H-chromen-2-one], the melting point was 211.6 to 212.1 °C. Moreover, the viability at 72 h, 100 µM in “in vitro” turned out to be 51%. Besides, the inhibition at 100 µM in the data set on HIV-1 [1] was 79%.

As for `CCSc1nnc(-c2ccc(N=Nc3c(O)c4ccccc4oc3=O)cc2)o1` [Compound 11b, 3-((4-(5-(Ethylthio)-1,3,4-oxadiazol-2-yl)phenyl)diazenyl)-4-hydroxy-2H-chromen-2-one], the melting point was 290 to 291 °C (dec.). For the same compound, in the data set “in vitro”, the viability at 72 h, 100 µM was 100%. Moreover, the inhibition at 100 µM in the data set on HIV-1 [1] was found to be 5%.

The compound `CCCSc1nnc(-c2ccc(N=Nc3c(O)c4ccccc4oc3=O)cc2)o1` [Compound 11c, 4-Hydroxy-3-((4-(5-(propylthio)-1,3,4-oxadiazol-2-yl)phenyl)diazenyl)-2H-chromen-2-one] returned a melting point of 205.5 to 206.8 °C. For the same compound, in the data set “in vitro”, the viability at 72 h, 100 µM was determined as 93%. In the data set on HIV-1 [1], the inhibition at 100 µM was found to be 32%.

`O=c1oc2ccccc2c(O)c1N=Nc1ccc(-c2nnc(SCc3ccccc3)o2)cc1` [Compound 11d, 3-((4-(5-(Benzylthio)-1,3,4-oxadiazol-2-yl)phenyl)diazenyl)-4-hydroxy-2H-chromen-2-one] came in with a melting point of 243.1 to 243.8 °C. Besides, in the data set “in vitro”, the viability at 72 h, 100 µM was 94%. The inhibition at 100 µM in the data set on HIV-1 [1] worked out at 6%.

Compound `O=c1oc2ccccc2c(O)c1N=Nc1ccc(-c2nnc(SCc3ccccc3Cl)o2)cc1` [Compound 11e, 3-((4-(5-(2-Chlorobenzylthio)-1,3,4-oxadiazol-2-yl)phenyl)diazenyl)-4-hydroxy-2H-chromen-2-one] had a melting point of 236.8 to 237.5 °C. In “in vitro”, this compound came in with a viability at 72 h, 100 µM of 75%. Also, in the data set with HIV-1 [1], the inhibition at 100 µM stood at 33%.

The compound `O=c1oc2ccccc2c(O)c1N=Nc1ccc(-c2nnc(SCc3ccc(Cl)cc3)o2)cc1` [Compound 11f, 3-((4-(5-(4-Chlorobenzylthio)-1,3,4-oxadiazol-2-yl)phenyl)diazenyl)-4-hydroxy-2H-chromen-2-one] yielded a melting point of 260.8 to 263.8 °C. The viability at 72 h, 100 µM in “in vitro” came out at 100%. The inhibition at 100 µM in the data set on HIV-1 [1] stood at 52%.

Regarding `O=c1oc2ccccc2c(O)c1N=Nc1ccc(-c2nnc(SCc3ccccc3F)o2)cc1` [Compound 11g, 3-((4-(5-(2-Fluorobenzylthio)-1,3,4-oxadiazol-2-yl)phenyl)diazenyl)-4-hydroxy-2H-chromen-2-one], the melting point was 240.1 to 242.2 °C. In addition, in the data set “in vitro”, the viability at 72 h, 100 µM is 74%. Moreover, the inhibition at 100 µM in the data set with HIV-1 [1] turned out to be 22%.

`O=c1oc2ccccc2c(O)c1N=Nc1ccc(-c2nnc(SCc3ccc(F)cc3)o2)cc1` [Compound 11h, 3-((4-(5-(4-Fluorobenzylthio)-1,3,4-oxadiazol-2-yl)phenyl)diazenyl)-4-hydroxy-2H-chromen-2-one] came in with a melting point of 246.6 to 251.6 °C. For the same compound, the viability at 72 h, 100 µM in “in vitro” amounted to 100%. Moreover, the inhibition at 100 µM in the data set with HIV-1 [1] was 25%.
